The values that follow come from PubChem BioAssay (NCI).

Test systems include SK-MEL-5 melanoma; CAKI-1 renal; NCI-H23 lung; HOP-92 NSCLC; K-562 leukemia; SK-MEL-2 melanoma; HT29 colon; A549 NSCLC; IGROV1 ovarian; SW-620 colon.
Common to all, as to assay: DTP human tumour cell line panel, 48 h

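Five concentrations, 48 hours, 96-well plates. GI50 marks 50% less growth. TGI: total growth inhibition.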

By GI50 is commonly meant the concentration that inhibits growth by half. One may read the TGI as the concentration at which net growth stops. A lower TGI goes with more potent growth arrest.

For the compound `O=C(NCc1cn(Cc2cccc(Oc3ccccc3)c2)nn1)c1cccnc1Nc1ccc(F)cc1`, the GI50 was 4.48 µM with SK-MEL-5 melanoma; 64.2 µM in the test on CAKI-1 renal; 52.1 µM with NCI-H23 lung; 10.7 µM with HOP-92 NSCLC; more than 100 µM with K-562 leukemia; 34.2 µM with SK-MEL-2 melanoma. Further, the GI50 was 5.6 µM in the test on HT29 colon, 6.11 µM in the test on A549 NSCLC, 30.7 µM with IGROV1 ovarian and 6.58 µM in the test with SW-620 colon. The TGI in the test on SK-MEL-5 melanoma is 38.8 µM; with CAKI-1 renal it was more than 100 µM; in the test on NCI-H23 lung, more than 100 µM; in the test on HOP-92 NSCLC, 43.5 µM; in the test on K-562 leukemia, more than 100 µM; in the test on SK-MEL-2 melanoma, more than 100 µM. The concentration for total growth inhibition (TGI) in the test on HT29 colon, in the test with A549 NSCLC, in the test with IGROV1 ovarian and in the test on SW-620 colon was more than 100 µM each time.

As to `COC(=O)N[C@H]1CCc2cc(OC)c(OC)c(OC)c2-c2ccc(SC)c(=O)cc21`, the GI50 in the test on SK-MEL-5 melanoma was less than 0.01 µM; in the test on CAKI-1 renal, less than 0.0166 µM; with NCI-H23 lung, less than 0.01 µM; in the test with HOP-92 NSCLC, 0.0631 µM; in the test on K-562 leukemia, less than 0.01 µM; in the test with SK-MEL-2 melanoma, 1.76 µM. Besides, the GI50 in the test on HT29 colon, in the test with A549 NSCLC, in the test with IGROV1 ovarian and in the test with SW-620 colon was less than 0.01 µM throughout. The TGI in the test with SK-MEL-5 melanoma was 0.0191 µM; with CAKI-1 renal, more than 100 µM; in the test on NCI-H23 lung, more than 100 µM; in the test with HOP-92 NSCLC it was more than 64.8 µM; in the test with K-562 leukemia it was more than 100 µM; with SK-MEL-2 melanoma, more than 100 µM. Also, the TGI in the test with HT29 colon, in the test with A549 NSCLC, in the test on IGROV1 ovarian and in the test with SW-620 colon was more than 100 µM in each case.

For `CC(=O)/C(=C\c1ccc(Cl)cc1)c1ccccc1`, the GI50 was 0.0818 µM in the test with SK-MEL-5 melanoma; 0.549 µM in the test on CAKI-1 renal; 0.26 µM with NCI-H23 lung; 0.12 µM in the test with HOP-92 NSCLC; 0.0501 µM in the test on K-562 leukemia; 0.141 µM in the test with SK-MEL-2 melanoma. For the same compound, the GI50 in the test with HT29 colon is 0.14 µM; in the test with A549 NSCLC it was 0.255 µM; in the test on IGROV1 ovarian, 0.344 µM; in the test with SW-620 colon, 0.0445 µM. Also, the TGI with SK-MEL-5 melanoma was 1.14 µM; in the test with CAKI-1 renal, more than 100 µM; in the test on NCI-H23 lung, more than 100 µM; with HOP-92 NSCLC it was more than 26.2 µM; with K-562 leukemia, more than 100 µM; in the test with SK-MEL-2 melanoma, more than 100 µM. The concentration for total growth inhibition (TGI) in the test on HT29 colon was more than 61.7 µM; with A549 NSCLC it was more than 100 µM; in the test with IGROV1 ovarian, more than 100 µM; in the test on SW-620 colon it was more than 64.6 µM.

With `CCOc1ccc(N(C)c2ccc(/C=C/C3=[N+](C)c4ccccc4C3(C)C)cc2)cc1`, the 50% growth inhibitory concentration (GI50) with SK-MEL-5 melanoma was 0.192 µM; in the test on CAKI-1 renal it was 0.784 µM; in the test with NCI-H23 lung, 0.125 µM; in the test with HOP-92 NSCLC it was 0.197 µM; in the test on K-562 leukemia, 0.359 µM; in the test with SK-MEL-2 melanoma it was 0.361 µM. Besides, the GI50 with HT29 colon is 0.137 µM; in the test with A549 NSCLC, 0.201 µM; in the test on IGROV1 ovarian it was 0.257 µM; in the test on SW-620 colon, 0.175 µM. Also, the TGI with SK-MEL-5 melanoma stood at 0.784 µM; in the test on CAKI-1 renal, 2.48 µM; with NCI-H23 lung, 1.34 µM; in the test on HOP-92 NSCLC, 0.86 µM; with K-562 leukemia, 10.3 µM; in the test on SK-MEL-2 melanoma, 1.25 µM. Further, the TGI worked out at 1.06 µM in the test on HT29 colon, 1.35 µM in the test on A549 NSCLC, 0.982 µM in the test with IGROV1 ovarian and 1.19 µM in the test with SW-620 colon.

On to `O=C(CCc1nnc2s/c(=C\c3ccc([N+](=O)[O-])cc3)c(=O)n12)Nc1ccc(Cl)c(Cl)c1`, for which the total growth inhibition concentration (TGI) in the test with SK-MEL-5 melanoma is more than 100 µM; in the test with CAKI-1 renal, more than 100 µM; with NCI-H23 lung, 75.6 µM; in the test on HOP-92 NSCLC, more than 100 µM; with K-562 leukemia, 63.9 µM; in the test with SK-MEL-2 melanoma, 73.9 µM. The TGI was 71.7 µM in the test with HT29 colon, more than 100 µM in the test on A549 NSCLC, 50 µM in the test on IGROV1 ovarian and 58.4 µM in the test on SW-620 colon.

With `CN1C(=O)C(c2c[nH]c3ccccc23)=C(c2c[nH]c3ccccc23)C1=O`, the GI50 with SK-MEL-5 melanoma was 4.5 µM; in the test on CAKI-1 renal, 3.92 µM; in the test with NCI-H23 lung, 6.61 µM; with HOP-92 NSCLC it was 3.08 µM; in the test with K-562 leukemia, 7.77 µM; in the test with SK-MEL-2 melanoma it was 5.26 µM. Also, the GI50 was 8.47 µM in the test on HT29 colon, 7.08 µM in the test on A549 NSCLC, 5.47 µM in the test with IGROV1 ovarian and 5.78 µM in the test with SW-620 colon. Also, the TGI in the test on SK-MEL-5 melanoma was 10.9 µM; with CAKI-1 renal, 12.1 µM; in the test with NCI-H23 lung it was more than 25 µM; in the test with HOP-92 NSCLC, 13.3 µM; in the test with K-562 leukemia it was more than 25 µM; with SK-MEL-2 melanoma, 13.4 µM. In addition, the TGI is more than 25 µM with HT29 colon, more than 25 µM in the test on A549 NSCLC, more than 22.8 µM in the test on IGROV1 ovarian and more than 25 µM in the test on SW-620 colon.

For the compound `C[C@@H]1C(=O)CC2C(C)(C)CCC[C@]2(C)[C@@]12CC[C@]1(C=COC1)O2` (stereo partly drawn), the TGI in the test on CAKI-1 renal is more than 100 µM; in the test on HOP-92 NSCLC, 48 µM; with K-562 leukemia, 80.4 µM; with SK-MEL-2 melanoma, 44.3 µM; with HT29 colon it was more than 100 µM; with A549 NSCLC it was more than 100 µM. Further, the TGI with IGROV1 ovarian and with SW-620 colon was more than 100 µM each time.

Regarding `CN(C)CC1CC/C(=C\c2ccc(Cl)c(Cl)c2)C1=O` (stereo not drawn), the TGI with SK-MEL-5 melanoma was more than 72.9 µM; with CAKI-1 renal, 56.1 µM; in the test with NCI-H23 lung it was 47.3 µM; in the test with HOP-92 NSCLC, 48.2 µM; in the test on K-562 leukemia it was more than 27.1 µM; with SK-MEL-2 melanoma, more than 62.9 µM. For the same compound, the TGI in the test with HT29 colon is 54.4 µM; in the test with A549 NSCLC it was more than 100 µM; in the test on IGROV1 ovarian, more than 69.6 µM; in the test on SW-620 colon, more than 51.6 µM.

As to `Cc1c2cnccc2c(C)c2c1c1ccccc1n2CCOC(=O)c1ccccc1`, the TGI came to 38.9 µM in the test on SK-MEL-5 melanoma; 28 µM in the test on CAKI-1 renal; 54.7 µM in the test on NCI-H23 lung; 71.9 µM with HOP-92 NSCLC; 44.5 µM in the test with K-562 leukemia; 31.8 µM with SK-MEL-2 melanoma. Further, the TGI amounted to 54.1 µM with HT29 colon, 43.1 µM in the test with A549 NSCLC, 42.7 µM in the test with IGROV1 ovarian and 53.7 µM with SW-620 colon.
